Like-named read-outs stand apart in the source and are kept apart here. Marks after values point to notes of the source that are not given here. Square brackets hold non-standard residues; d marks the D form. Peptide text beside a SMILES is read from it. * marks the point of attachment. Fmoc = O=C(OCC1c2ccccc2-c2ccccc21)*; Cha = N[C@@H](CC1CCCCC1)C(=O)O; AMC = Cc1cc(=O)oc2cc(N*)ccc12
Assays:
[1] = cited from earlier work
[2] = system: Tubulin α1 (Tα1) promoter
Excerpt: (§1) Dual luciferase expressing CGR8-2Luc cells were obtained by transduction of mouse ESC CGR8 cells with the 2K7 EFS-Renilla Luciferase (RLuc)/Talpha1-Firefly Luciferase (FLuc) vector as previously described (Suter et al. [2006], [2009]); EFS corresponds to the short promoter of the eukaryotic translation elongation factor 1 alpha (EF1α), and Talpha1 to the Tubulin α1 (Tα1) promoter. Tα1 was selected as a promoter active in neurons, including early stages of neural differentiation. EF1α was originally selected to function as a constitutive promoter; however, it responds to cellular differentiation as well as to various chemicals, as previously shown (Kern et al. [2013]). Cells were cultured on 0.1 % gelatin-coated dishes in CGR8-2luc maintenance medium: BHK21 medium, supplemented with 10 % fetal calf serum, L-glutamine, non-essential amino acids, penicillin/streptomycin, and leukemia inhibitory factor (LIF). CGR8 cells were grown in a feeder-independent manner (embryonic pluripotent stem cells, ESCs) as described in protocol 1 (Fig. 1) before testing compounds of interest.
(§2) Fig. 1 Synopsis of experimental protocols. The impact of compounds on neural promoter activity (FLuc, Firefly Luciferase under the control of the Tα1 promoter), general promoter activity (RLuc, Renilla Luciferase under the control of the EF1α promoter), and amount of DNA (PI, propidium iodide fluorescence in cell homogenates) was investigated in undifferentiated mouse embryonic pluripotent stem cells (ESCs) and on ESC-derived neurons. Arrows indicate the time of measurement of the three parameters. a Protocol for testing compounds effects on ESCs. CGR8-2Luc cells were plated on gelatin-coated 96-well plates in maintenance medium (BHK21 medium containing 10 % FCS, L-glutamine, NEAA, P/S, and LIF). Twenty-four hours later, cells were exposed to compounds for forty-eight hours. b Protocol for testing compounds on ESC-derived neurons. CGR8-2Luc cells were co-cultured with MS5 cells to induce neural differentiation in DMEM medium containing 15 % KO-serum, NEAA, β-mercaptoethanol, and P/S. On day 5, cells were detached and seeded on polyornithine-coated plates in DMEM medium containing N2 supplement, bFGF, and P/S; compound exposure was from day 6 to day 8
(§3) To test compounds on ESC-derived neurons, neuronal differentiation was carried out as previously described (Suter et al. [2009]; Xu et al. [2014]). Briefly, CGR8-2Luc cells were seeded on irradiated bone marrow-derived stromal MS5 cells and cultivated for 4 days in DMEM medium containing 15 % Knock-out™ Serum Replacement, non-essential amino acids, beta-mercaptoethanol, and penicillin/streptomycin. At day 5, cells were then re-plated (3 × 10^5 cells/cm^2) on polyornithine-coated 96-well plates in N2 medium containing DMEM, N2 supplement, penicillin/streptomycin, and 10 ng/ml basic human fibroblast growth factor (bFGF) (Invitrogen). […] To assess toxicity of compounds on undifferentiated pluripotent stem cells (ESCs), CGR8-2Luc cells were plated at 45,000 cells/cm^2 on 0.1 % gelatin-coated dishes in BHK21 medium, supplemented with 10 % fetal calf serum, L-glutamine, non-essential amino acids, penicillin/streptomycin, and leukemia inhibitory factor (LIF). After 24 h, compounds were added and incubated for 48 h, before luciferase expression and PI fluorescence were analyzed. In all experiments, methylmercury was used as a positive control at a concentration of 5 µM.
(§4) Luciferase activities were measured with a Dual-Luciferase™ Reporter system kit. CGR8-2Luc ES cells were lysed in 96-well plates according to the manufacturer’s instructions. Luminescence measurements were performed on a Fluostar Optima reader. Luminescence counts were expressed as percentage of promoter activity normalized by comparison with the control wells treated by DMSO.

EF1α promoter = system: EF1α promoter
Excerpt: as §1, §2, §3, §4

[3] = system: Tubulin α1 (Tα1) promoter; assay: cells
Excerpt: as §1, §2, §3, §4

CGR8-2Luc ESCs = system: CGR8-2Luc ESCs
Excerpt: as §2, §3
(§5) After measurement of luciferase activity, DNA quantity was determined by PI assay, as previously described (Xu et al. [2014]). PI was added to cell homogenates after the luciferase test, at a final concentration of 50 µg/ml and incubated for 2 h. After incubation, fluorescence intensity was measured on a Flexstation 3 microplate reader (Excitation: 544 nm ± 15 nm; Emission: 620 nm ± 15 nm). Results are expressed as percentage of control. Propidium iodide (PI) measures total DNA content as an approximation of the cell number. A decrease in PI fluorescence was interpreted as a decrease in cell number and therefore throughout the text referred to as cytotoxicity.
(§6) Lowest adverse effect level (LOAEL) was defined as the lowest tested concentrations that lead to a statistically significant decrease for a given read-out (FLuc, RLuc, and PI) compared to baseline. “Baseline” was not in all cases defined by untreated cells, but may also refer to, e.g., a state of increased activity due to low, non-toxic compound concentrations.

ESC-derived neurons = system: ESC-derived neurons
Excerpt: as §2, §3, §5, §6

[4] = system: ESCs and ESC-derived neurons; assay: Dual luminescence reporter test system, all readouts in ESCs and ESC-derived neurons
Excerpt: as §2, with “neurons.” for “neurons. CGR8-2Luc cells were co-cultured with MS5 cells to induce neural differentiation in DMEM medium containing 15 % KO-serum, NEAA, β-mercaptoethanol, and P/S. On day 5, cells were detached and seeded on polyornithine-coated plates in DMEM medium containing N2 supplement, bFGF, and P/S; compound exposure was from day 6 to day 8”
as §3, with “At” for “To test compounds on ESC-derived neurons, neuronal differentiation was carried out as previously described (Suter et al. [2009]; Xu et al. [2014]). Briefly, CGR8-2Luc cells were seeded on irradiated bone marrow-derived stromal MS5 cells and cultivated for 4 days in DMEM medium containing 15 % Knock-out™ Serum Replacement, non-essential amino acids, beta-mercaptoethanol, and penicillin/streptomycin. At”
Luciferase activities were measured with a Dual-Luciferase™ Reporter system kit. CGR8-2Luc ES cells were lysed in 96-well plates according to the manufacturer’s instructions. Luminescence measurements were performed on a Fluostar Optima reader. Luminescence counts were expressed as percentage of promoter activity normalized by comparison with the control wells treated by DMSO. […] parameters were measured in homogenates of ESCs and in ESC-derived neurons: (1) FLuc, reflecting the activity of early neural promoter Tα1. FLuc increases during neuronal differentiation. Many neurotoxic compounds may affect FLuc expression, either through impact on neuronal differentiation, through changes of neuronal gene expression, or through killing of neurons.
as §5, with “PI” for “After measurement of luciferase activity, DNA quantity was determined by PI assay, as previously described (Xu et al. [2014]). PI”
To describe the shape of different concentration–response curves, arbitrary scores were assigned as follows: 0 for “no change,” 1 for “down-stroke,” 2 for “bimodal profile,” and 3 for “up-stroke” (Fig. S1). A curve was classified as “down-stroke” or “up-stroke” if the change in response values comparative to control was statistically significant (p value <0.05, one-way ANOVA with post hoc Dunnett) with an additional requirement of a 30 % decrease or increase of mean response value relative to controls, respectively. If the absolute change in mean response values was below 30 % the curve was classified as “no change.” A curve was classified as “bimodal” if first up-stroke and subsequently down-stroke was observed.

[5] = undifferentiated ESCs, 48 h exposure, lowest tested concentration with statistically significant decrease
[6] = undifferentiated ESCs, 48 h exposure
[7] = ESC-derived neurons, 48 h exposure
[8] = undifferentiated ESCs, 48 h exposure, PI assay (cytotoxicity)
[9] = ESC-derived neurons, 48 h exposure, PI assay (cytotoxicity)
[10] = reporter activity changes in the non-cytotoxic concentration range, highest possible number 4

| Compound | LOAEL ESC Tα1 [2, 5] | LOAEL ESC EF1α (EF1α promoter; [6]) | LOAEL Neurons Tα1 [3, 7] | LOAEL ESC DNA (CGR8-2Luc ESCs; [8]) | LOAEL Neurons DNA (ESC-derived neurons; [9]) | Number of non-cytotoxic changes ([4]; mouse, 48 h) | LOAEL Neurons EF1α (EF1α promoter; [7]) | result in the dual luminescence reporter test system [4] | also measured |
| --- | --- | --- | --- | --- | --- | --- | --- | --- | --- |
| CCC[C@H](NC(=O)[C@@H]1[C@H]2CCC[C@H]2CN1C(=O)[C@@H](NC(=O)[C@@H](NC(=O)c1cnccn1)C1CCCCC1)C(C)(C)C)C(=O)C(=O)NC1CC1 [Telaprevir] | 50 µM | 50 µM | 50 µM | 50 µM | 50 µM | 0 | – | – | Concentration in humans ([1]; in vivo): 5.1^k µM; LOAEL Neurons EF1α (EF1α promoter; mouse, 48 h): 50 µM |
| Cc1ccc(NC(=O)c2ccc(CN3CCN(C)CC3)cc2)cc1Nc1nccc(-c2cccnc2)n1 [Imatinib] | 10 µM | >10 µM | 10 µM | >10 µM | >10 µM | 3 | 10 µM | – | – |
| CC(C)(C)C(=O)C(Oc1ccc(Cl)cc1)n1cncn1 (centres unmarked) [Triadimefon] | – | – | – | – | – | – | – | relatively weak responses | LOAEL ESC Tα1 ([2]; mouse): 50 µM; LOAEL ESC EF1α (EF1α promoter; mouse): >50 µM; LOAEL Neurons EF1α (EF1α promoter; mouse): 50 µM; LOAEL Neurons Tα1 ([3]; mouse): >50 µM; LOAEL ESC DNA (CGR8-2Luc ESCs; mouse): >50 µM; LOAEL Neurons DNA (ESC-derived neurons; mouse): >50 µM; result in the dual luminescence reporter test system ([4]; ESCs and neurons, FLuc, RLuc, PI): potentially neurotoxic |
| CCCCc1oc2ccccc2c1C(=O)c1cc(I)c(OCCN(CC)CC)c(I)c1 [Amiodarone] | – | – | 50 µM | – | – | 1 | – | – | LOAEL Neurons Tα1 ([3]; ESC-derived neurons, 48 h exposure, listed as amiodarone): 5 µM |
| CC(C)Cc1ccc(C(C)C(=O)O)cc1 (centres unmarked) [Ibuprofen] | >50 µM | >50 µM | >50 µM | >50 µM | >50 µM | 0 | >50 µM | negative | Concentration in humans ([1]; ref Dewland et al. ([2009])): 150^a µM |
| COc1cccc2c1C(=O)c1c(O)c3c(c(O)c1C2=O)C[C@@](O)(C(=O)CO)C[C@@H]3O[C@H]1C[C@H](N)[C@H](O)[C@H](C)O1 [Doxorubicin] | 0.005 µM | 0.005 µM | 0.005 µM | 0.005 µM | 0.005 µM | 0 | 0.005 µM | strongly decreased the neuronal and general reporter activities, as well as the cell number | – |
| CCCc1nn(C)c2c(=O)[nH]c(-c3cc(S(=O)(=O)N4CCN(C)CC4)ccc3OCC)nc12 [Sildenafil] | >50 µM | >50 µM | >50 µM | >50 µM | >50 µM | 0 | >50 µM | – | – |
| N[C@@H](CC(=O)N1CCn2c(nnc2C(F)(F)F)C1)Cc1cc(F)c(F)cc1F [Sitagliptin] | >50 µM | >50 µM | >50 µM | >50 µM | >50 µM | 0 | >50 µM | – | Concentration in humans ([1]; ref Zimmer et al. ([2014])): 1.9^k µM |
| Exenatide | >0.02 µM | >0.02 µM | >0.02 µM | >0.02 µM | >0.02 µM | – | >0.02 µM | – | Number of non-cytotoxic changes [4, 10]: 0 |
| CC(C1CC1)C(O)(Cn1cncn1)c1ccc(Cl)cc1 (centres unmarked) [Cyproconazole] | >50 µM | >50 µM | >50 µM | >50 µM | >50 µM | 0 | >50 µM | did not give a signal | – |
| Cc1cc(=O)oc2cc(NC(=O)[C@H](CCCCN)NC(=O)[C@H](CC3CCCCC3)NC(=O)OCC3c4ccccc4-c4ccccc43)ccc12 [Galnon] (Fmoc-[Cha]-Lys-{AMC}) | 20 µM | 20 µM | 5 µM | 20 µM | >20 µM | – | 5 µM | – | Number of non-cytotoxic changes [4, 10]: 2 |
